{"source": "paper PMC3914206", "data": [{"target": "T1, panel of 442 kinases (Homo sapiens, UniProt P57078)", "T1 construct": "purchased KINOMEscan", "T1 sequence (P57078 1-832)": "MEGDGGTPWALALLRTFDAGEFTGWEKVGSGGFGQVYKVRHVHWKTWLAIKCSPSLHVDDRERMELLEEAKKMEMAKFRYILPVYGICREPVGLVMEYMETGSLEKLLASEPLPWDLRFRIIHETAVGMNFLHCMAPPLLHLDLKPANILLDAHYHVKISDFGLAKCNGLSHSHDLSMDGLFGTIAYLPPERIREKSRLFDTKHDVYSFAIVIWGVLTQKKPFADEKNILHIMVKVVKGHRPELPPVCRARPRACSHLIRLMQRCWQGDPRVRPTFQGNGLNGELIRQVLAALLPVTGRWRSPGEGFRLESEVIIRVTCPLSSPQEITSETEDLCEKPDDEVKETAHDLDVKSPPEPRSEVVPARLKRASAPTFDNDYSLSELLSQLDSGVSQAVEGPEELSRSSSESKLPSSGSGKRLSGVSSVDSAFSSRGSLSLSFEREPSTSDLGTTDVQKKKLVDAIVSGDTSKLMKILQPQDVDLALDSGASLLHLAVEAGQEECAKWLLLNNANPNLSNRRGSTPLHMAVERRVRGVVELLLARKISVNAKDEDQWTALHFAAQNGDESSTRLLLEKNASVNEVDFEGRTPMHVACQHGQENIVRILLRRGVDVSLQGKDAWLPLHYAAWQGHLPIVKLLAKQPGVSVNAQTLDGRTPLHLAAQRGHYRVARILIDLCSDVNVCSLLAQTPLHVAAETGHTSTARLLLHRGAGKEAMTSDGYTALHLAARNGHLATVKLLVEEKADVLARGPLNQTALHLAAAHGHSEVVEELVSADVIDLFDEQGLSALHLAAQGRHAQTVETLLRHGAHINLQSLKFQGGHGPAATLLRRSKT", "assay_type": "binding", "conditions": "Compound Concentration 10 µM", "from_the_text": "We assessed the selectivity of members of this scaffold using the KINOMEscan methodology across a near comprehensive panel of 442 kinases [[18,27]].", "values": [{"smiles": "CCOc1cc(C(=O)N2CCC(N3CCN(C)CC3)CC2)ccc1Nc1ncc2c(n1)N(C1CCCC1)c1ccccc1C(=O)N2C", "note": "[Compound 26]", "KINOMEscan: RIPK4": 100}, {"smiles": "COc1cc(C(=O)N2CCC(N3CCN(C)CC3)CC2)ccc1Nc1ncc2c(n1)N(C1CCCC1)c1ccccc1C(=O)N2C", "note": "[Compound 25, 11-cyclopentyl-2-((2-methoxy-4-(4-(4-methylpiperazin-1-yl)piperidine-1-carbonyl)phenyl)amino)-5-methyl-5H-benzo[e]pyrimido[5,4-b][1,4]diazepin-6(11H)-one]", "KINOMEscan: RIPK4": 100}, {"smiles": "COc1cc(C(=O)N2CCC(N3CCN(C)CC3)CC2)ccc1Nc1ncc2c(n1)N(C)c1ccccc1C(=O)N2C", "note": "[15 (LRRK2-IN-1)]", "KINOMEscan: RIPK4": 74}]}]}
